Earlier results on one molecule are cited in patent US20130079315A1, “Ophthalmic Gel Compositions” (priority 2011, published 2013).

Take `CCOC(=O)O[C@]1(C(=O)OCCl)CC[C@H]2[C@@H]3CCC4=CC(=O)C=C[C@]4(C)[C@H]3[C@@H](O)C[C@@]21C` [LE, (11β,17α),-7-((Ethoxycarbonyl)oxy)-11-hydroxy-3-oxoandrosta-1,4-diene-17-carboxylic acid chloromethyl ester]: the solubility in water entry is listed as “about 0.008 mg/mL”.
